# Assay results as given in patent US5518912A, “Endopeptidase” (priority 1993, dated 1996).
# Positions of bridges follow the written chain, without caps; N, C: chain ends. Non-standard residues stand in square brackets, D forms with d. Residues, ends and D or L forms follow the SMILES beside them. *: point of attachment. Ileψ(thiazoline)Cys = CC[C@H](C)[C@H](N)C1=N[C@H](C(=O)*)CS1; Sta = CC(C)C[C@H](N)[C@@H](O)CC(=O)O; dOrn = NCCC[C@@H](N)C(=O)O; Isovaleryl = CC(C)CC(=O)*
# How the values were obtained:
# [1] = tested on: endopeptidase from the skin of Xenopus laevis; experiment: Inhibitor studies: enzyme preincubated with inhibitor, then cleavage of substrate peptide read on acid gel; format: biochemical; conditions: for % INHIBITION: substrate magainin 2-amide; for effect of proteinase inhibitor on enzyme activity (in words): summary of Table 2
# Method: Reaction buffer consisted of 20 mM Na phosphate, 50 mM NaCl final concentration. After quenching the reaction with 0.5 volume of glacial acetic acid, a 15 μl aliquot of each reaction was analyzed by acidic gel electrophoresis. […]
# Inhibitor studies were conducted in the same fashion; the only difference involved first incubating the enzyme with each inhibitor tested at a particular concentration in the absence of any substrate for one hour at room temperature. Substrate was then added to the reaction and allowed to incubate for an additional hour at room temperature.
# ACIDIC GEL ELECTROPHORESIS--Acidic gels (pH 4) were prepared and run as originally described (Gabriel, 1971) with several modifications. The gel solution consisted of a final concentration of 15% (v/v) acrylamide (acrylamide:bisacrylamide/37.5:1), 88 mM KOH, 3% (v/v) glacial acetic acid, 0.75% (v/v) […] (Temed), 0.375% ammonium persulfate (30 mg/ml). Before loading samples, 0.5 volume of glacial acetic acid was added, as well as 0.5 volume of 0.1% Pyronin Y loading dye. MINI PROTEAN gel apparatus (Biorad, Richmond, Calif.) were used and gels electrophoresed at 200 volts in running buffer containing 0.035M β-alanine and glacial acetic acid (2.45 ml/l), pH 4.0. Gels were stained in 0.1% (w/v) Coomassie Brilliant Blue R-250 (Sigma), 50% methanol, 50% water and destained in distilled water.
# [2] = tested on: endopeptidase from the skin of Xenopus laevis; experiment: Substrate specificity analyses: cleavage of peptides and analogues by the purified endopeptidase (acid gel, HPLC/amino acid analysis); format: biochemical; conditions: 50 μg peptide, one hour, room temperature
# Method: ENZYME ASSAYS--Activity was monitored by incubating 0.1-10 μl of each chromatographic fraction with 50 μg of magainin 2-amide substrate in a total volume of 100 μl for one hour at room temperature. Reaction buffer consisted of 20 mM Na phosphate, 50 mM NaCl final concentration. After quenching the reaction with 0.5 volume of glacial acetic acid, a 15 μl aliquot of each reaction was analyzed by acidic gel electrophoresis. One unit of enzyme activity is defined as the amount of enzyme required to convert 25 μg of magainin 2-amide substrate into half-peptide products under the above conditions.
# Substrate specificity analyses were carried out as described above except that 50 μg of each substrate analogue under investigation was substituted for magainin 2-amide in the incubation at the same concentration.
# Before loading samples, 0.5 volume of glacial acetic acid was added, as well as 0.5 volume of 0.1% Pyronin Y loading dye. […]
# 100 μl reactions were injected into a Beckman HPLC System Gold instrument and run on a C18 reversed phase column (4.6×220 mm, Aquapore OD-300, Applied Biosystems, Foster City, Calif.). […] Portions of the resuspended sample were injected into an amino acid analyzer with automated hydrolysis (model 420/130, Applied Biosystems, Foster City, Calif.), and numerical calculations for specific amino acids were determined using an Applied Biosystems 920A data analysis module.
# [3] = inhibitor 1 mM, one unit endopeptidase preincubated one hour
compound,measurement,setting,value
"c1cnc2c(c1)ccc1cccnc12 [1,10-Phenanthroline, 1,10-phenanthroline]",% INHIBITION,[1]; inhibitor 0.2 mM,70%
same,% INHIBITION,[1]; inhibitor 2 mM,100%
same,% INHIBITION,[1]; inhibitor 20 mM,100%
same,effect of proteinase inhibitor on enzyme activity (in words),[1],substantially inhibited enzyme activity
"CC[C@H](C)[C@H](N)C1=N[C@H](C(=O)N[C@@H](CC(C)C)C(=O)N[C@H](CCC(=O)O)C(=O)N[C@H](C(=O)N[C@H]2CCCCNC(=O)[C@H](CC(N)=O)NC(=O)[C@@H](CC(=O)O)NC(=O)[C@H](Cc3cnc[nH]3)NC(=O)[C@@H](Cc3ccccc3)NC(=O)[C@H]([C@@H](C)CC)NC(=O)[C@@H](CCCN)NC2=O)[C@@H](C)CC)CS1 [Bacitracin, bacitracin] ({Ileψ(thiazoline)Cys}-L[dE]IK[dOrn]I[dF]H[dD]N; lactam 4-C)",% INHIBITION,[1]; inhibitor 1 mg/ml,0%
same,effect of proteinase inhibitor on enzyme activity (in words),[1],no effect on endoproteolysis
"CC(C)C[C@H](NC(=O)[C@H]1O[C@@H]1C(=O)O)C(=O)NCCCCN=C(N)N [E-64, N-[N-(L-3-trans-carboxyoxiran-2-carbonyl)-L-leucyl]-agmatine]",% INHIBITION,[1]; inhibitor 300 μM,0%
same,effect of proteinase inhibitor on enzyme activity (in words),[1],no effect on enzyme activity
"O=C(O)CN(CCN(CC(=O)O)CC(=O)O)CC(=O)O [EDTA, ethylenediaminetetraacetic acid]",% INHIBITION,[1]; inhibitor 0.5 mM,25%
same,% INHIBITION,[1]; inhibitor 5 mM,25%
same,% INHIBITION,[1]; inhibitor 50 mM,50%
same,effect of proteinase inhibitor on enzyme activity (in words),[1],substantially inhibited enzyme activity
"CC(=O)N[C@@H](CC(C)C)C(=O)N[C@@H](CC(C)C)C(=O)N[C@H](C=O)CCCNC(=N)N [Leupeptin, leupeptin]",% INHIBITION,[1]; [3],0%
same,effect of proteinase inhibitor on enzyme activity (in words),[1],no effect on enzyme activity
"O=S(=O)(F)Cc1ccccc1 [PMSF, phenylmethanesulfonyl fluoride]",% INHIBITION,[1]; inhibitor 10 mM,0%
same,effect of proteinase inhibitor on enzyme activity (in words),[1],no effect on enzyme activity
"CC(C)CC(=O)N[C@H](C(=O)N[C@H](C(=O)N[C@@H](CC(C)C)[C@@H](O)CC(=O)N[C@@H](C)C(=O)N[C@@H](CC(C)C)[C@@H](O)CC(=O)O)C(C)C)C(C)C [Pepstatin, pepstatin] (Isovaleryl-VV[Sta]A[Sta]-OH)",% INHIBITION,"[1]; inhibitor 100 μm, one unit endopeptidase preincubated one hour",0%
same,effect of proteinase inhibitor on enzyme activity (in words),[1],no effect on enzyme activity
"CC(C)C[C@H](NP(=O)(O)O[C@@H]1O[C@@H](C)[C@H](O)[C@@H](O)[C@H]1O)C(=O)N[C@@H](Cc1c[nH]c2ccccc12)C(=O)O [Phosphoramidon, phosphoramidon]",% INHIBITION,[1]; inhibitor 1 μM,0%
same,% INHIBITION,[1]; inhibitor 100 μM,0%
same,effect of proteinase inhibitor on enzyme activity (in words),[1],no effect on endoproteolysis
CC[C@H](C)[C@H](NC(=O)CN)C(=O)NCC(=O)N[C@@H](C)C(=O)N[C@H](C(=O)N[C@@H](CC(C)C)C(=O)N[C@@H](CCCCN)C(=O)N[C@H](C(=O)N[C@@H](CC(C)C)C(=O)N[C@H](C(=O)N[C@H](C(=O)NCC(=O)N[C@@H](CC(C)C)C(=O)N1CCC[C@H]1C(=O)N[C@@H](C)C(=O)N[C@@H](CC(C)C)C(=O)N[C@H](C(=O)N[C@@H](CO)C(=O)N[C@@H](Cc1c[nH]c2ccccc12)C(=O)N[C@H](C(=O)N[C@@H](CCCCN)C(=O)N[C@@H](CCCNC(=N)N)C(=O)N[C@@H](CCCCN)C(=O)N[C@@H](CCCNC(=N)N)C(=O)N[C@@H](CCC(N)=O)C(=O)N[C@@H](CCC(N)=O)C(N)=O)[C@@H](C)CC)[C@@H](C)CC)[C@@H](C)O)[C@@H](C)O)C(C)C)C(C)C [melittin],inhibition of cleavage of magainin 2,"[1]; preincubation with tenfold molar excess of peptide, substrate magainin 2",approximately 25%
same,cleavage of the peptide by the endopeptidase (in words),[2],do not serve as substrates
K11R: magainin 1 analogue constituting the replacement of all lysines with arginines,cleavage of the peptide by the endopeptidase (in words),[2],effectively served as a substrate
tosyl-L-phenylalanine chloromethyl ketone [TPCK],% INHIBITION,[1]; [3],0%
same,effect of proteinase inhibitor on enzyme activity (in words),[1],no effect on enzyme activity
